Laboratory results reported in the supplement of paper PMC4932681.

Columns and labels:
BT-474 [1] = assay: relative IC50 (midpoint of fitted logistic curve, plateau may be below 50% inhibition; CellTiter-Glo viability); higher = less potent; details: 72 h
Summary of the method: (§1)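 After seeding into 384-well plates with library drugs at five concentrations spanning a 10 000-fold range, breast cancer cell lines and their resistant derivatives were incubated 72 h at 37 °C. Resistant lines received medium with 1 μM of the selecting drug. CellTiter-Glo signal was read on a PHERAstar and scaled to vehicle-only and positive controls. Drug sensitivity score, relative IC50 (the curve midpoint) and top-dose inhibition came from logistic fits run in the Breeze pipeline.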

MCF-7 Tam1 [2] = assay: as above; details: 4-OH-tamoxifen in medium 1 µM; 72 h
Summary of the method: as §1

T-47D Tam2 [3] = assay: as above; details: 4-OH-tamoxifen in medium 1 µM; 72 h
Summary of the method: as §1

T-47D Tam1 [4] = assay: as above; details: 4-OH-tamoxifen in medium 1 µM; 72 h
Summary of the method: as §1

T-47D [5] = assay: as above; details: 72 h
Summary of the method: as §1

MCF-7 [6] = assay: as above; details: 72 h
Summary of the method: as §1

BT-474 Tam1 [7] = assay: as above; details: 4-OH-tamoxifen in medium 1 µM; 72 h
Summary of the method: as §1

ZR-75-1 Tam2 [8] = assay: as above; details: 4-OH-tamoxifen in medium 1 µM; 72 h
Summary of the method: as §1

ZR-75-1 [9] = assay: as above; details: 72 h
Summary of the method: as §1

BT-474 Tam2 [10] = assay: as above; details: 4-OH-tamoxifen in medium 1 µM; 72 h
Summary of the method: as §1

ZR-75-1 Tam1 [11] = assay: as above; details: 4-OH-tamoxifen in medium 1 µM; 72 h
Summary of the method: as §1

BT-474 [12] = assay: drug sensitivity score (DSS) (DSS (dimensionless)); higher = more sensitive; extreme values may be limits of the assay; details: 72 h
Summary of the method: as §1

MCF-7 Tam1 [13] = assay: as above; details: 4-OH-tamoxifen in medium 1 µM; 72 h
Summary of the method: as §1

T-47D Tam2 [14] = assay: as above; details: 4-OH-tamoxifen in medium 1 µM; 72 h
Summary of the method: as §1

T-47D Tam1 [15] = assay: as above; details: 4-OH-tamoxifen in medium 1 µM; 72 h
Summary of the method: as §1

T-47D [16] = assay: as above; details: 72 h
Summary of the method: as §1

MCF-7 [17] = assay: as above; details: 72 h
Summary of the method: as §1

BT-474 Tam1 [18] = assay: as above; details: 4-OH-tamoxifen in medium 1 µM; 72 h
Summary of the method: as §1

ZR-75-1 Tam2 [19] = assay: as above; details: 4-OH-tamoxifen in medium 1 µM; 72 h
Summary of the method: as §1

ZR-75-1 [20] = assay: as above; details: 72 h
Summary of the method: as §1

BT-474 Tam2 [21] = assay: as above; details: 4-OH-tamoxifen in medium 1 µM; 72 h
Summary of the method: as §1

ZR-75-1 Tam1 [22] = assay: as above; details: 4-OH-tamoxifen in medium 1 µM; 72 h
Summary of the method: as §1

Structure (SMILES) | relative IC50 (BT-474 [1]; 4-OH-tamoxifen in medium 0 µM) [nM] | relative IC50 (BT-474 [1]; 4-OH-tamoxifen in medium 1 µM) [nM] | relative IC50 (MCF-7 Tam1 [2]) [nM] | relative IC50 (T-47D Tam2 [3]) [nM] | relative IC50 (T-47D Tam1 [4]) [nM] | relative IC50 (T-47D [5]; 4-OH-tamoxifen in medium 0 µM) [nM] | relative IC50 (T-47D [5]; 4-OH-tamoxifen in medium 1 µM) [nM] | relative IC50 (MCF-7 [6]; 4-OH-tamoxifen in medium 0 µM) [nM] | relative IC50 (MCF-7 [6]; 4-OH-tamoxifen in medium 1 µM) [nM] | relative IC50 (BT-474 Tam1 [7]) [nM] | relative IC50 (BT-474 Tam2 [10]) [nM] | relative IC50 (ZR-75-1 Tam2 [8]) [nM] | relative IC50 (ZR-75-1 [9]; 4-OH-tamoxifen in medium 0 µM) [nM] | relative IC50 (ZR-75-1 [9]; 4-OH-tamoxifen in medium 1 µM) [nM] | relative IC50 (ZR-75-1 Tam1 [11]) [nM] | drug sensitivity score (BT-474 [12]; 4-OH-tamoxifen in medium 0 µM) | drug sensitivity score (BT-474 [12]; 4-OH-tamoxifen in medium 1 µM) | drug sensitivity score (MCF-7 Tam1 [13]) | drug sensitivity score (T-47D Tam2 [14]) | drug sensitivity score (T-47D Tam1 [15]) | drug sensitivity score (T-47D [16]; 4-OH-tamoxifen in medium 0 µM) | drug sensitivity score (T-47D [16]; 4-OH-tamoxifen in medium 1 µM) | drug sensitivity score (MCF-7 [17]; 4-OH-tamoxifen in medium 0 µM) | drug sensitivity score (MCF-7 [17]; 4-OH-tamoxifen in medium 1 µM) | drug sensitivity score (BT-474 Tam1 [18]) | drug sensitivity score (ZR-75-1 Tam2 [19]) | drug sensitivity score (ZR-75-1 [20]; 4-OH-tamoxifen in medium 0 µM) | drug sensitivity score (ZR-75-1 [20]; 4-OH-tamoxifen in medium 1 µM) | drug sensitivity score (BT-474 Tam2 [21]) | drug sensitivity score (ZR-75-1 Tam1 [22])
CO[C@@H](C(=O)N1Cc2[nH]nc(NC(=O)c3ccc(N4CCN(C)CC4)cc3)c2C1)c1ccccc1 | > 10000 | > 10000 | > 10000 | 833 | 1030 | – | – | > 10000 | > 10000 | > 10000 | > 10000 | > 10000 | > 10000 | > 10000 | > 10000 | 0 | 0 | 0 | 3.95 | 4.24 | 2.94 | 1.25 | 0 | 0 | 0 | 0 | 0 | 0 | 0 | 0
COc1ncc(-c2ccc3nccc(-c4ccnnc4)c3c2)cc1NS(=O)(=O)c1ccc(F)cc1F | 15.1 | 5.69 | 9.12 | 15.3 | 3.99 | 5.87 | 19.7 | 5.97 | 8.41 | 2.07 | 7.03 | 10.7 | 7.56 | 10.7 | 10.4 | 18.5 | 25.9 | 13.1 | 15.7 | 22.4 | 19.3 | 15.6 | 18.1 | 19.8 | 31 | 19.4 | 19.3 | 16.3 | 25 | 18.6
Cc1ccc(C(=O)N(CCCN)[C@@H](c2oc3cc(Cl)ccc3c(=O)c2Cc2ccccc2)C(C)C)cc1 | > 100 | > 100 | > 100 | > 100 | > 100 | > 100 | > 100 | > 100 | – | > 100 | > 100 | > 100 | > 100 | > 100 | > 100 | 0 | 0 | 0 | 0 | 0 | 0 | 0 | 0 | 0.514 | 0 | 0 | 0 | 0 | 0 | 0
Cc1cccc(-c2nn3c(c2-c2ccnc4ccc(C(N)=O)cc24)CCC3)n1 | > 1000 | > 1000 | > 1000 | > 1000 | > 1000 | > 1000 | > 1000 | > 1000 | – | > 1000 | > 1000 | > 1000 | > 1000 | > 1000 | > 1000 | 0 | 0 | 0 | 0 | 0 | 0 | 0 | 0 | 0.246 | 0 | 0 | 0 | 0 | 0 | 0
N#CC[C@H](C1CCCC1)n1cc(-c2ncnc3[nH]ccc23)cn1 | > 10000 | > 10000 | > 10000 | > 10000 | > 10000 | > 10000 | > 10000 | > 10000 | > 10000 | > 10000 | > 10000 | > 10000 | > 10000 | > 10000 | > 10000 | 0 | 0 | 0 | 0 | 0 | 0 | 0 | 0 | 0 | 0 | 0 | 0 | 0 | 0 | 0

Second part, led by results:

relative IC50 (BT-474 [1]; 4-OH-tamoxifen in medium 0 µM) [nM] | relative IC50 (BT-474 [1]; 4-OH-tamoxifen in medium 1 µM) [nM] | relative IC50 (MCF-7 Tam1 [2]) [nM] | relative IC50 (T-47D Tam2 [3]) [nM] | relative IC50 (T-47D Tam1 [4]) [nM] | relative IC50 (T-47D [5]; 4-OH-tamoxifen in medium 0 µM) [nM] | relative IC50 (T-47D [5]; 4-OH-tamoxifen in medium 1 µM) [nM] | relative IC50 (MCF-7 [6]; 4-OH-tamoxifen in medium 0 µM) [nM] | relative IC50 (MCF-7 [6]; 4-OH-tamoxifen in medium 1 µM) [nM] | relative IC50 (BT-474 Tam1 [7]) [nM] | relative IC50 (BT-474 Tam2 [10]) [nM] | Structure (SMILES) | relative IC50 (ZR-75-1 Tam2 [8]) [nM] | relative IC50 (ZR-75-1 [9]; 4-OH-tamoxifen in medium 0 µM) [nM] | relative IC50 (ZR-75-1 [9]; 4-OH-tamoxifen in medium 1 µM) [nM] | relative IC50 (ZR-75-1 Tam1 [11]) [nM] | drug sensitivity score (BT-474 [12]; 4-OH-tamoxifen in medium 0 µM) | drug sensitivity score (BT-474 [12]; 4-OH-tamoxifen in medium 1 µM) | drug sensitivity score (MCF-7 Tam1 [13]) | drug sensitivity score (T-47D Tam2 [14]) | drug sensitivity score (T-47D Tam1 [15]) | drug sensitivity score (T-47D [16]; 4-OH-tamoxifen in medium 0 µM) | drug sensitivity score (T-47D [16]; 4-OH-tamoxifen in medium 1 µM) | drug sensitivity score (MCF-7 [17]; 4-OH-tamoxifen in medium 0 µM) | drug sensitivity score (MCF-7 [17]; 4-OH-tamoxifen in medium 1 µM) | drug sensitivity score (BT-474 Tam1 [18]) | drug sensitivity score (ZR-75-1 Tam2 [19]) | drug sensitivity score (ZR-75-1 [20]; 4-OH-tamoxifen in medium 0 µM) | drug sensitivity score (ZR-75-1 [20]; 4-OH-tamoxifen in medium 1 µM) | drug sensitivity score (BT-474 Tam2 [21]) | drug sensitivity score (ZR-75-1 Tam1 [22])
> 10000 | > 10000 | > 10000 | > 10000 | > 10000 | > 10000 | > 10000 | > 10000 | > 10000 | > 10000 | > 10000 | CNCc1ccc(-c2[nH]c3cc(F)cc4c3c2CCNC4=O)cc1 | > 10000 | > 10000 | > 10000 | > 10000 | 0 | 0 | 0 | 0 | 0 | 0 | 0 | 0 | 0 | 0 | 0 | 0 | 0 | 0 | 0
297 | 76.6 | 194 | 305 | 188 | 184 | 332 | 77.5 | 173 | 121 | 175 | COc1ccc(-c2cc3c(C)nc(N)nc3n([C@H]3CC[C@H](OCCO)CC3)c2=O)cn1 | 52.5 | 102 | 102 | 208 | 16.5 | 24.3 | 13.2 | 14.9 | 18.1 | 18.6 | 15.4 | 20.2 | 16.4 | 22.7 | 24 | 19 | 17 | 19.5 | 16.3
